Assay results as given in patent US9238684B2, “SPANX-B polypeptides and their use” (The United States of America, as represented by the …, priority 2009, dated 2016).

What was measured:
[1] = tested on: SPANX-B-specific CD4^+ T cell lines; assay: IFNγ secretion (ELISA) by CD4+ T cell lines stimulated with antigen-pulsed autologous DCs; format: cell-based, human; details: for IFNγ secretion by CD4+ T cell lines on stimulation with pulsed DCs: CD4+ T cell lines generated with SPANX-B protein-treated autologous DCs, FIGS. 3A-C; for IFNγ secretion by SPANX-B-specific CD4+ T cell line: irradiated mature DCs pulsed with 1 μg/ml peptide, FIG. 3A; for generation of SPANX-B-specific CD4+ T cell lines using the peptide: lines recognized DCs incubated with SPANX-B protein dose-dependently, FIGS. 3C, 3D; for IFNγ secretion by SPANX-B-specific CD4+ T cell lines, fine mapping of the epitope: autologous DCs pulsed with peptide, lines generated to SPANX-B protein, Pep-1 or Pep-G1, FIG. 3D
Procedure: T cell stimulation: To generate CD4^+ T cell lines, CD4^+ T cells (2×10^6) were stimulated with autologous DC pulsed with either SPANX-B protein (2 μg/mL), or with SPANX-B peptides (10 μg/mL) in the presence of IL-2 (20 U/mL) for seven days. T cells were re-stimulated once every week two times. To generate CD8^+ CTL lines, 2×10^6 CD8^+ T cells were stimulated with autologous DC pulsed with either SPANX-B protein (2 μg/mL) and SPANX-B peptides (10 μg/mL) in the presence of IL-2 (20 U/mL) and IL-15 (10 ng/mL) for seven days. T cells were weekly restimulated with peptide-loaded DCs for several times. To test antigen-specific activity of CD4^+ T cell lines, all experiments were performed in triplicates in 96-well plates with 1×10^5 CD4^+ T cells/well. […] T cell activity was judged by IFNγ secretion in culture supernatants by ELISA after 48 hours incubation (see below and Schiavo et al., Blood 107(12):4597-605, 2006). For most experiments, unless specified, 1:5 Target:Effector ratio was used.
Detection of IFNγ by ELISA: ELISA was performed as described elsewhere (Schiavo et al., Blood 107(12):4597-605, 2006). Briefly, 96-well flat-bottom plates were coated with 2 μg/mL of anti-human IFNγ antibody (BD pharmingen, San Jose, Calif.) to capture secreted IFNγ. The captured IFNγ was detected with 0.5 μg/mL biotin-conjugated mouse anti-human IFNγ antibody and streptavidin-HRP (BD pharmingen, San Jose, Calif.). The assay was visualized with TMB peroxidase solution B (KPL, Gaithersburg, Md.) and read at OD450.

[2] = tested on: murine anti-SPANX-B antibody; assay: ELISA on peptide-coated plates with murine anti-SPANX-B antibody; format: binding; details: Ab from mice DNA immunized with SPANX-B-expressing plasmid; FIG. 1B
Procedure: FIGS. 1A-1F are digital images, a graph and a schematic diagram illustrating the specificity of antibody and expression of SPANX-B in human immortalized tumor cell lines. FIG. 1A is a digital image showing ANEA-I0117 antibody recognized SPANX-B expressed in mouse erythroleukemia RL5 cells. Western blotting results are shown with ANEA-I0117 anti-SPANX-B antibody on lysates of RL5 cells (2 μl, 5 μl and 10 μl, respectively) transiently transduced with plasmid expressing SPANX-B (SPANX-B). Control lysates were made from untransduced parental RL5 cells (Control). FIG. 1B is a graph showing murine anti-SPANX-B antibody, which was generated from mice DNA immunized with plasmid expressing SPANX-B, recognized unique SPANX-B-specific insert of SPANX-B (encoded in Pep-G1 and Pep-2 peptides), ELISA assay on plates coated with various peptides that are depicted in FIG. 1C. […] FIG. 1D is a digital image showing the expression of SPANX-B protein evaluated by Western blotting with ANEA-I0117 Ab (1:5000) in lysates of cell lines, such as HEK293 (HEK), Jurkat, CRL 7002, UACC1273, 938 Mel, CCRF-CEM (CEM), and normal human donor PBMC (upper panel). The blot was stripped and hybridized with anti-actin antibody (lower panel). FIGS. 1E and 1F are digital images obtained from an immunohistochemistry and immunofluorescent assay, respectively, of melanoma (UACC1273) and ovarian carcinoma (2008 and OVCAR3) cell lines. The cells were stained with ANEA-I0117 Ab (right and bottom panels in FIG. 1E and FIG. 1F, respectively); and control IgG (left and upper panels in FIG. 1E and FIG. 1F, respectively).
SPANX-B can be often found in the list of highly expressed genes in microarray study of human tumors, including hematological malignancies and breast cancer (see, for example, Minn et al., Nature 436(7050):518-24, 2005). To confirm this, expression was tested using two antibodies, a rabbit 3ANEA Ab and mouse SPANX-B Ab. […] The second SPANX-B Ab was produced from mice DNA immunized with SPANX-B-expressing plasmid. […] In contrast, it reacted with a second peptide Pep-2 that only represented unique for SPANX-B insert of Pep-G1 (FIGS. 1B and C).

[3] = tested on: SPANX-B; assay: DNA immunization of mice, serum ELISA on peptide-coated plates; format: in vivo; details: plates coated with peptide 5 μg/ml; FIG. 7
Procedure: Mice were intradermally immunized twice with 25 μg plasmid DNA constructs including MIP-3α-SPANX-B. Sera were tested for SPANX-B antibodies by ELISA assay in 96-well plates coated with the indicated peptides (5 μg/ml). […] The other was near the N-terminus, encoded by Pep-G1 (SEQ ID NO: 14) and Pep-2 (SEQ ID NO: 2) and Pep-3 (SEQ ID NO: 3).

[4] = tested on: SPANX-B-specific CD8^+ T cell lines; assay: IFNγ secretion (ELISA) by CD8+ T cell lines stimulated with antigen-pulsed autologous DCs; format: cell-based, human; details: for IFNγ secretion by SPANX-B-specific CD8+ T cells on stimulation with pulsed DCs: irradiated autologous DCs, lines generated with SPANX-B protein, FIG. 5A
[5] = tested on: HEK293 cells; assay: CTL 51Cr release assay on HEK293 cells pulsed with Pep-2; format: cell-based, human; details: FIGS. 6A-C; for lysis of HLA-A2-expressing HEK293 cells pulsed with Pep-2 by CD8+ T cell lines generated to the antigen: HEK-A2, pulsed with 1 μg/ml Pep-2; for lysis of HLA-A2-negative parental HEK293 cells by CD8+ T cell lines generated to the antigen: HEK
Procedure: (§1) CTL assay and HLA blocking experiments: Tumor cell lines (target cells, 2×10^6) were incubated in 200 μL of fetal bovine serum (FBS) with 200 μCi of Na2^51CrO4 (PerkinElmer, Billerica, Mass.) for 2 hours at 37° C. Cells were washed with RPMI three times and resuspended in cRPMI with 10% FBS at 1×10^5 cells/mL. CTL assay was performed in triplicate in 96-well round bottom plates with 1×10^4/well ^51Cr-labeled target cells. The target cells were co-cultured at indicated ratios with effector cells (peptide-specific CD8^+ T cells) for 6 hours. The specific ^51Cr-release is calculated using formula: ((test sample release−spontaneous release)/(maximum release−spontaneous release))×100). Maximum release is for the target cells alone lysed with 2% Triton X-100.

[6] = tested on: UACC1273 melanoma cells; assay: CTL 6-hour 51Cr release assay on UACC1273; format: cell-based, human; details: SPANX-B-expressing, HLA-A2-positive target; FIGS. 6A-C
Procedure: as §1

[7] = tested on: primary human melanoma cells; assay: CTL 51Cr release assay on primary human melanoma cells; format: cell-based; details: for lysis of HLA-A2-expressing primary melanoma tumors by CD8+ lines generated to the antigen: Tc526, Tc624 and Tc2492; for lysis of HLA-A2-negative primary melanoma tumors by CD8+ lines generated to the antigen: Tc2547 and Tc938, FIG. 6E
Procedure: as §1

[8] = tested on: HLA-DR; assay: HLA blocking of Pep-9-induced CD4+ T cell activation; format: cell-based, human
Procedure: The MHC […] inhibition assays: HLA specific mAbs or control isotype matched IgG were preincubated with peptide-pulsed DCs at concentration of 10 μg/mL for one hour at 4° C. Cells were washed with PBS, irradiated at 4500 rad and mixed with T cells at indicated ratios. To block HLA class I expression, tumor cells lines were pretreated with 10 μg/mL of anti-HLA-A,B,C antibodies (BD Pharmingen, San Jose, Calif.) for one hour at 4° C. Cells were washed with PBS and labeled with ^51Cr as indicated above. IFNγ production was determined by ELISA after 48 hour incubation as described (Schiavo et al., Blood 107(12):4597-605, 2006).
Next, to characterize HLA specificity, the CD4^+ T cell lines were stimulated with autologous DCs pulsed with Pep-9 in the presence of antibody that blocked HLA-DR, or HLA-DQ, or HLA-DP molecules. The stimulation of the SPANX-B-specific CD4^+ T cells was not affected by the presence of control antibody or antibodies that block HLA-DQ, or HLA-DP, or anti-MHC class I (FIGS. 4 A-C).

Molecule: ALWFRNHFVFGGGTK (Synthetic peptide MOPC (9)) [control murine class II peptide, reference compound]
- IFNγ secretion by CD4+ T cell lines on stimulation with pulsed DCs [1]: failed to respond

Molecule: ANEANEANKTMPETPTGDSDP (Synthetic peptide Pep-G2)
- IFNγ secretion by CD4+ T cell lines on stimulation with pulsed DCs [1]: failed to respond
- recognition of peptide by mouse SPANX-B Ab (ELISA) [2]: but not other region-specific peptides

Molecule: ENRINPDQMEEEEFIEITTERPKK (Synthetic peptide Pep-8)
- B cell epitope recognized by sera of immunized mice (ELISA) [3]: Immunodominant B cell epitopes

Molecule: GQQSSVRRL (Synthetic peptide Pep-3)
- B cell epitope recognized by sera of immunized mice (ELISA) [3]: Immunodominant B cell epitopes
- recognition of peptide by mouse SPANX-B Ab (ELISA) [2]: but not other region-specific peptides

Molecule: KRSVPCESNEANEANEANKTM (Synthetic peptide Pep-G1)
- B cell epitope recognized by sera of immunized mice (ELISA) [3]: Immunodominant B cell epitopes
- IFNγ secretion by CD4+ T cell lines on stimulation with pulsed DCs [1]: activated the CD4^+ T cell lines to secrete IFNγ
- IFNγ secretion by SPANX-B-specific CD4+ T cell line [1]: can be also activated to secrete IFNγ
- generation of SPANX-B-specific CD4+ T cell lines using the peptide [1]: readily generated
- recognition of peptide by mouse SPANX-B Ab (ELISA) [2]: preferentially recognized

Molecule: KRTSPEELVNDHARENRINPDQME (Synthetic peptide Pep-7)
- B cell epitope recognized by sera of immunized mice (ELISA) [3]: Immunodominant B cell epitopes

Molecule: LVVRYRRNV (Synthetic peptide Pep-4)
- recognition of SPANX-B protein-pretreated DCs by CD8+ T cells generated with peptide-pulsed DCs [4]: also recognized SPANX-B protein-pretreated DCs
- IFNγ secretion by SPANX-B-specific CD8+ T cells on stimulation with pulsed DCs [4]: secreted IFNγ
- lysis of HLA-A2-expressing HEK293 cells pulsed with Pep-2 by CD8+ T cell lines generated to the antigen [5]: lysed HLA-A2-expressing HEK293 cells that were pulsed with Pep-2
- lysis of HLA-A2-negative parental HEK293 cells by CD8+ T cell lines generated to the antigen [5]: did not kill
- lysis of UACC1273 melanoma cells by CD8+ T cell lines generated to the antigen [6]: killed UACC1273 melanoma cells
- lysis of HLA-A2-expressing primary melanoma tumors by CD8+ lines generated to the antigen [7]: recognized and lysed
- lysis of HLA-A2-negative primary melanoma tumors by CD8+ lines generated to the antigen [7]: not affected

Molecule: QPAPKKMKTSESSTILVVRYRRNV (Synthetic peptide Pep-6)
- IFNγ secretion by CD4+ T cell lines on stimulation with pulsed DCs [1]: failed to respond
- recognition of peptide by mouse SPANX-B Ab (ELISA) [2]: but not other region-specific peptides

Molecule: RSAPCASAEVNE (Synthetic peptide Pep-9 Mod) [Pep-9-Mod, reference compound]
- IFNγ secretion by SPANX-B-specific CD4+ T cell lines, fine mapping of the epitope [1]: did not respond

Molecule: RSVPCESNEANE (Synthetic peptide Pep-9)
- HLA restriction of recognition by human CD4+ T cells [8]: HLA-DR-restricted fashion
- IFNγ secretion by SPANX-B-specific CD4+ T cell lines, fine mapping of the epitope [1]: able to activate the SPANX-B-specific CD4^+ T cell lines

Molecule: RSVPCESNEVNETMPETPTGDSDP (Synthetic peptide Pep-5)
- IFNγ secretion by CD4+ T cell lines on stimulation with pulsed DCs [1]: activated the CD4^+ T cell lines to secrete IFNγ
- IFNγ secretion by SPANX-B-specific CD4+ T cell line [1]: can be also activated to secrete IFNγ
- generation of SPANX-B-specific CD4+ T cell lines using the peptide [1]: readily generated
- recognition of peptide by mouse SPANX-B Ab (ELISA) [2]: failed to recognize

B1: SPANX-B protein: Recombinant SPANX-B protein fused with maltose binding protein (MBP), produced and purified from E. coli (protein)
chain: MGQQSSVRRLKRSVPCESNEANEANEANKTMPETPTGDSDPQPAPKKMKTSESSTILVVRYRRNVKRTSPEELLNDHARENRINPDQMEEEEFIEITTERPKK
- SPANX-B-specific CD8+ T cell lines generated, donors ([4]; HLA-A2-positive peripheral blood CD8+ T cells, DCs incubated with SPANX-B protein): 3/3
- IFNγ secretion by SPANX-B-specific CD8+ T cells on stimulation with pulsed DCs [4]: secreted IFNγ
- lysis of HLA-A2-expressing HEK293 cells pulsed with Pep-2 by CD8+ T cell lines generated to the antigen [5]: lysed HLA-A2-expressing HEK293 cells that were pulsed with Pep-2
- lysis of HLA-A2-negative parental HEK293 cells by CD8+ T cell lines generated to the antigen [5]: did not kill
- lysis of UACC1273 melanoma cells by CD8+ T cell lines generated to the antigen [6]: killed UACC1273 melanoma cells
- lysis of HLA-A2-expressing primary melanoma tumors by CD8+ lines generated to the antigen [7]: recognized and lysed
- lysis of HLA-A2-negative primary melanoma tumors by CD8+ lines generated to the antigen [7]: not affected
- IFNγ secretion by CD4+ T cell lines on stimulation with pulsed DCs [1]: specifically recognized SPANX-B-treated DCs
